Data: ChEMBL document CHEMBL3885861, “Open TG-GATES”

Organism: Rattus norvegicus
Experiment: Open TG-GATES - Regimen: Daily Repeat
Format: toxicity, organism-based, Sprague-Dawley
Set-up: regimen Daily Repeat, gender Male, age 6 weeks
Conditions: in vivo, po, 0 mg/kg, route gavage, dose level Control; for APTT / Bas / Eos / Fbg / Hb / Ht / Lym / MCH / MCHC / MCV / Mono / Neu / PT / Plat / RBC / Ret / WBC: tissue Blood; for KIDNEY_L / KIDNEY_R / KIDNEY_TOTAL: tissue Kidney; for LIVER: tissue Liver; for A/G / ALP / ALT / AST / BUN / CRE / Ca / Cl / DBIL / GLC / IP / K / LDH / Na / PL / RALB / TBIL / TC / TG / TP / gamma-GTP: tissue Plasma

CN(C/C=C/C#CC(C)(C)C)Cc1cccc2ccccc12 [TERBINAFINE]
TERMINAL_BW (72 h, time 3 day): 243.5 g | APTT (72 h, time 3 day): 18.4 s | Bas (72 h, time 3 day): 0.8% | Eos (72 h, time 3 day): 1% | Fbg (72 h, time 3 day): 227.8 mg/dL | Hb (72 h, time 3 day): 13.5 g/dL | Ht (72 h, time 3 day): 39.9% | Lym (72 h, time 3 day): 76% | MCH (72 h, time 3 day): 21.5 pg | MCHC (72 h, time 3 day): 33.8% | MCV (72 h, time 3 day): 63.4 fL | Mono (72 h, time 3 day): 3% | Neu (72 h, time 3 day): 19.2% | PT (72 h, time 3 day): 11.8 s | Plat (72 h, time 3 day): 117.2 x10_4/uL | RBC (72 h, time 3 day): 629 x10_4/ul | Ret (72 h, time 3 day): 5.9% | WBC (72 h, time 3 day): 104.3 x10_2/uL | KIDNEY_L (72 h, time 3 day): 1.1 g | KIDNEY_R (72 h, time 3 day): 1.1 g | KIDNEY_TOTAL (72 h, time 3 day): 2.2 g | LIVER (72 h, time 3 day): 11.8 g | A/G (72 h, time 3 day): 1.6 | ALP (72 h, time 3 day): 804.6 IU/L | ALT (72 h, time 3 day): 34.2 IU/L | AST (72 h, time 3 day): 66.8 IU/L | BUN (72 h, time 3 day): 14.4 mg/dL | CRE (72 h, time 3 day): 0.4 mg/dL | Ca (72 h, time 3 day): 10.8 mg/dL | Cl (72 h, time 3 day): 103.4 meq/L | DBIL (72 h, time 3 day): 0.098 mg/dL | GLC (72 h, time 3 day): 192.8 mg/dL | IP (72 h, time 3 day): 7.3 mg/dL | K (72 h, time 3 day): 4.2 meq/L | LDH (72 h, time 3 day): 191.8 IU/L | Na (72 h, time 3 day): 141.6 meq/L | PL (72 h, time 3 day): 147.6 mg/dL | RALB (72 h, time 3 day): 3.5 g/dL | TBIL (72 h, time 3 day): 0.2 mg/dL | TC (72 h, time 3 day): 74.6 mg/dL | TG (72 h, time 3 day): 99.2 mg/dL | TP (72 h, time 3 day): 5.6 g/dL | gamma-GTP (72 h, time 3 day): 2 IU/L | TERMINAL_BW ([…], time 7 day): 279 g | TERMINAL_BW ([…], time 14 day): 323.8 g | TERMINAL_BW ([…], time 28 day): 389.8 g | APTT ([…], time 7 day): 18.7 s | Bas ([…], time 7 day): 1% | Eos ([…], time 7 day): 1% | Fbg ([…], time 7 day): 236 mg/dL | Hb ([…], time 7 day): 13.9 g/dL | Ht ([…], time 7 day): 41% | Lym ([…], time 7 day): 79.6% | MCH ([…], time 7 day): 20.8 pg | MCHC ([…], time 7 day): 33.8% | MCV ([…], time 7 day): 61.4 fL | Mono ([…], time 7 day): 2.8% | Neu ([…], time 7 day): 15.6% | PT ([…], time 7 day): 11.7 s | Plat ([…], time 7 day): 121.9 x10_4/uL | RBC ([…], time 7 day): 669.2 x10_4/ul | Ret ([…], time 7 day): 5.2% | WBC ([…], time 7 day): 118.9 x10_2/uL | APTT ([…], time 14 day): 19.6 s | Bas ([…], time 14 day): 1% | Eos ([…], time 14 day): 0.8% | Fbg ([…], time 14 day): 220.4 mg/dL | Hb ([…], time 14 day): 14.7 g/dL | Ht ([…], time 14 day): 43.1% | Lym ([…], time 14 day): 84.2% | MCH ([…], time 14 day): 20.1 pg | MCHC ([…], time 14 day): 34.1% | MCV ([…], time 14 day): 59.1 fL | Mono ([…], time 14 day): 2.2% | Neu ([…], time 14 day): 12.2% | PT ([…], time 14 day): 11.5 s | Plat ([…], time 14 day): 109.6 x10_4/uL | RBC ([…], time 14 day): 729.8 x10_4/ul | Ret ([…], time 14 day): 4% | WBC ([…], time 14 day): 106.5 x10_2/uL | APTT ([…], time 28 day): 20 s | Bas ([…], time 28 day): 1% | Eos ([…], time 28 day): 1.2% | Fbg ([…], time 28 day): 230.6 mg/dL | Hb ([…], time 28 day): 15.5 g/dL | Ht ([…], time 28 day): 43.8% | Lym ([…], time 28 day): 80% | MCH ([…], time 28 day): 20.4 pg | MCHC ([…], time 28 day): 35.4% | MCV ([…], time 28 day): 57.8 fL | Mono ([…], time 28 day): 2.4% | Neu ([…], time 28 day): 15.8% | PT ([…], time 28 day): 12 s | Plat ([…], time 28 day): 116.1 x10_4/uL | RBC ([…], time 28 day): 757.6 x10_4/ul | Ret ([…], time 28 day): 2.5% | WBC ([…], time 28 day): 135.2 x10_2/uL | KIDNEY_L ([…], time 7 day): 1.2 g | KIDNEY_R ([…], time 7 day): 1.2 g | KIDNEY_TOTAL ([…], time 7 day): 2.5 g | KIDNEY_L ([…], time 14 day): 1.2 g | KIDNEY_R ([…], time 14 day): 1.2 g | KIDNEY_TOTAL ([…], time 14 day): 2.5 g | KIDNEY_L ([…], time 28 day): 1.4 g | KIDNEY_R ([…], time 28 day): 1.4 g | KIDNEY_TOTAL ([…], time 28 day): 2.8 g | LIVER ([…], time 7 day): 13.3 g | LIVER ([…], time 14 day): 13.3 g | LIVER ([…], time 28 day): 15.6 g | A/G ([…], time 7 day): 1.5 | ALP ([…], time 7 day): 874.6 IU/L | ALT ([…], time 7 day): 33.6 IU/L | AST ([…], time 7 day): 68.2 IU/L | BUN ([…], time 7 day): 15.4 mg/dL | CRE ([…], time 7 day): 0.4 mg/dL | Ca ([…], time 7 day): 10.7 mg/dL | Cl ([…], time 7 day): 102.8 meq/L | DBIL ([…], time 7 day): 0.094 mg/dL | GLC ([…], time 7 day): 201.8 mg/dL | IP ([…], time 7 day): 7.8 mg/dL | K ([…], time 7 day): 4.5 meq/L | LDH ([…], time 7 day): 212.4 IU/L | Na ([…], time 7 day): 141.8 meq/L | PL ([…], time 7 day): 140.2 mg/dL | RALB ([…], time 7 day): 3.5 g/dL | TBIL ([…], time 7 day): 0.1 mg/dL | TC ([…], time 7 day): 69.4 mg/dL | TG ([…], time 7 day): 95.8 mg/dL | TP ([…], time 7 day): 5.8 g/dL | gamma-GTP ([…], time 7 day): 0.8 IU/L | A/G ([…], time 14 day): 1.4 | ALP ([…], time 14 day): 734.4 IU/L | ALT ([…], time 14 day): 34.8 IU/L | AST ([…], time 14 day): 67.2 IU/L | BUN ([…], time 14 day): 16 mg/dL | CRE ([…], time 14 day): 0.4 mg/dL | Ca ([…], time 14 day): 10.6 mg/dL | Cl ([…], time 14 day): 105 meq/L | DBIL ([…], time 14 day): 0.1 mg/dL | GLC ([…], time 14 day): 208.4 mg/dL | IP ([…], time 14 day): 7.2 mg/dL | K ([…], time 14 day): 3.7 meq/L | LDH ([…], time 14 day): 188.8 IU/L | Na ([…], time 14 day): 142.8 meq/L | PL ([…], time 14 day): 132.8 mg/dL | RALB ([…], time 14 day): 3.4 g/dL | TBIL ([…], time 14 day): 0.2 mg/dL | TC ([…], time 14 day): 63.6 mg/dL | TG ([…], time 14 day): 108 mg/dL | TP ([…], time 14 day): 5.8 g/dL | gamma-GTP ([…], time 14 day): 1 IU/L | A/G ([…], time 28 day): 1.3 | ALP ([…], time 28 day): 719.6 IU/L | ALT ([…], time 28 day): 33.8 IU/L | AST ([…], time 28 day): 65.8 IU/L | BUN ([…], time 28 day): 17.6 mg/dL | CRE ([…], time 28 day): 0.5 mg/dL | Ca ([…], time 28 day): 10.5 mg/dL | Cl ([…], time 28 day): 104.4 meq/L | DBIL ([…], time 28 day): 0.092 mg/dL | GLC ([…], time 28 day): 226.4 mg/dL | IP ([…], time 28 day): 6.9 mg/dL | K ([…], time 28 day): 4 meq/L | LDH ([…], time 28 day): 224.4 IU/L | Na ([…], time 28 day): 141.8 meq/L | PL ([…], time 28 day): 129.2 mg/dL | RALB ([…], time 28 day): 3.5 g/dL | TBIL ([…], time 28 day): 0.2 mg/dL | TC ([…], time 28 day): 62.6 mg/dL | TG ([…], time 28 day): 110.2 mg/dL | TP ([…], time 28 day): 6 g/dL | gamma-GTP ([…], time 28 day): 1.4 IU/L
